Measured values: PubChem BioAssay (NCI)
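Compound exposure: 48 hours, 5 concentrations, 96-well plates. GI50 = concentration required for 50% inhibition of growth. The concentration for full growth arrest is given as TGI.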

Key:
Experiment in all cases: NCI-60 cell line screen, 48 h
CAKI-1 renal = test system: CAKI-1 renal
HT29 colon = test system: HT29 colon
DLD-1 colon = test system: DLD-1 colon
NCI-H226 lung = test system: NCI-H226 lung
SR leukemia = test system: SR leukemia
OVCAR-8 ovarian = test system: OVCAR-8 ovarian
NCI-H522 lung = test system: NCI-H522 lung
DMS 114 small cell lung = test system: DMS 114 small cell lung
786-0 renal = test system: 786-0 renal
DMS 273 small cell lung = test system: DMS 273 small cell lung
RPMI-8226 leukemia = test system: RPMI-8226 leukemia
KM12 colon = test system: KM12 colon
SK-MEL-2 melanoma = test system: SK-MEL-2 melanoma
SNB-19 CNS = test system: SNB-19 CNS
MDA-MB-231 breast = test system: MDA-MB-231 breast
MDA-MB-435 = test system: MDA-MB-435
NCI/ADR-RES ovarian = test system: NCI/ADR-RES ovarian
BT-549 breast = test system: BT-549 breast
SF-295 CNS = test system: SF-295 CNS

Structure (SMILES)	TGI (CAKI-1 renal) [µM]	TGI (HT29 colon) [µM]	TGI (DLD-1 colon) [µM]	TGI (NCI-H226 lung) [µM]	TGI (SR leukemia) [µM]	TGI (OVCAR-8 ovarian) [µM]	TGI (NCI-H522 lung) [µM]	TGI (DMS 114 small cell lung) [µM]	TGI (786-0 renal) [µM]	TGI (DMS 273 small cell lung) [µM]	TGI (RPMI-8226 leukemia) [µM]	TGI (KM12 colon) [µM]	TGI (SK-MEL-2 melanoma) [µM]	TGI (SNB-19 CNS) [µM]	TGI (MDA-MB-231 breast) [µM]	TGI (MDA-MB-435) [µM]	TGI (NCI/ADR-RES ovarian) [µM]	TGI (BT-549 breast) [µM]	TGI (SF-295 CNS) [µM]	GI50 (NCI-H522 lung) [µM]
C[C@H]1C[C@@H]2[C@H]([C@@H](O)C[C@@]3(C)[C@H]2CC[C@]3(O)C(=O)CO)[C@@]2(C)C=CC(=O)C=C12	> 100	> 100	> 100	> 100	> 100	> 100	> 100	> 100	> 100	> 100	> 100	> 100	> 100	–	–	–	–	–	–	–
O=C(COc1ccc(Cl)c(Cl)c1)Nc1ccc[n+](Cc2ccc(S(=O)(=O)F)c(Cl)c2)c1	> 100	> 100	–	> 100	> 100	> 100	> 100	–	> 100	–	65.4	> 100	> 100	> 100	> 100	> 100	> 100	> 100	> 100	–
Cc1ccc(O)c(Cc2nc3ccccc3nc2-c2cccc(Cl)c2)c1	> 100	> 100	–	> 100	> 100	> 100	79	–	> 100	–	79.4	> 100	> 100	63.4	> 100	54.9	> 100	> 100	> 100	–
CNC(=O)OCc1nc(SC)n(C)c1CO	> 100	> 100	> 100	> 100	–	> 100	> 100	> 100	–	> 100	> 100	> 100	> 66.8	> 100	–	–	> 100	–	> 100	–
CC(=O)Oc1ccccc1	> 100	> 100	> 100	> 100	–	> 100	> 100	> 100	> 100	> 100	> 100	> 100	> 100	> 100	–	–	–	–	> 100	–
C[n+]1cccc(NC(=O)c2ccc(NC(=O)C34CCC(C(=O)Nc5ccc(C(=O)Nc6ccc[n+](C)c6)cc5)(CC3)CC4)cc2)c1	–	> 100	> 100	> 100	> 100	> 100	> 100	> 100	> 100	25.9	> 100	22.7	–	> 100	–	–	–	–	> 100	–
CC(=O)Nc1ccc2c(c1)/C(=C\c1ccc([N+](C)(C)C)cc1)c1ccccc1-2	> 100	> 100	–	74.4	–	> 100	> 100	–	> 100	–	91.3	> 100	–	> 100	> 100	> 100	> 100	> 100	> 100	–
COc1ccccc1/C=C/c1ccnc2ccccc12	40.3	25.4	–	29.5	35.7	30.2	–	–	27.7	–	37.8	25.3	30.1	28.2	31.1	19.9	32.4	24.4	27.2	–
COc1cc2c(c(OC)c1OC)-c1ccc(OC)c(=O)cc1C(NC(=O)COc1ccccc1)CC2 (configuration not stated)	15.3	< 0.146	> 100	0.423	8.93	13.1	< 0.01	< 0.01	93.8	> 100	38.3	< 0.011	> 15.8	> 100	1.22	< 0.01	0.4	5.12	0.0874	–
Cc1ccc2c(c1)SC1=Nc3sc4cc(C)ccc4[n+]3CN12	–	28.4	–	75.2	–	18.8	11.2	–	> 100	–	6.17	–	17.8	16.9	92.8	20.2	> 100	18.3	–	–
Cc1c2ccccc2c(C2C3C(=O)N(c4ccc(Br)cc4)C(=O)C3ON2C(C(N)=O)c2ccccc2)c2ccccc12 (configuration not stated)	21.3	7.35	–	30	–	48	9	–	33.1	–	4.63	22.1	30.3	22.6	–	12.9	41.4	43.4	58.5	–
COC1/C=C(C)/C=C/C(C)/C=C/C(=O)OC(/C(C)=C/C=C(\C)CNC(=O)[C@H](CO)NC=O)C(C)/C=C/C=C/C(OC)CC/C=C(C)/C=C/C1 (some centres not stated)	> 0.397	> 1	–	–	–	> 1	> 1	–	> 1	–	0.0769	> 1	> 0.246	> 1	–	0.047	> 0.724	> 1	0.0534	0.0362
O=C(CSCC(=O)N/N=C/c1ccc2c(c1)OCO2)N/N=C/c1ccc2c(c1)OCO2	> 100	> 100	–	> 100	–	> 100	> 100	–	> 100	–	> 100	> 100	> 100	> 100	> 100	> 100	> 100	> 100	> 100	–
c1ccc2c(CSCc3cccc4ccccc34)cccc2c1	> 100	> 100	–	> 100	> 100	> 100	> 100	–	> 100	–	–	> 100	> 100	> 100	> 100	> 100	> 100	> 100	> 100	–
CC(C)(C)[Si](OC1CCOC1=O)(c1ccccc1)c1ccccc1 (configuration not stated)	–	32.3	> 100	–	> 10	70.9	38	–	–	–	> 100	> 10	32.5	> 100	–	–	–	–	60.2	–
CCCCc1ccc(N=C(N)N)cc1	> 100	93.5	–	91.5	–	> 100	> 100	–	48.8	–	45.2	36.6	> 100	> 100	> 100	> 100	> 100	90.7	87.3	–
COc1cc(C(=O)NC2CCc3cc(OC)c(OC)c(OC)c3-c3ccc(OC)c(=O)cc32)cc(OC)c1OC (configuration not stated)	34	2.29	> 100	3.31	> 100	> 46.1	0.0544	0.1	70.9	> 100	27.4	0.801	> 24.1	> 100	> 100	0.0961	70.3	–	13	–
